From ChEMBL document CHEMBL1201862, “PubChem BioAssay data set” (2004)
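96-well plates; 48 h exposure; 5 concentrations. Endpoints by linear interpolation between flanking doses. Not reached: highest tested concentration assigned. GI50 marks 50% less growth.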 The source made the active and inactive calls. Cut-off read from the data, not from the text of the source: active = GI50 up to about 1.1 µM and inactive = higher.

Columns and labels:
Test in all cases: NCI tumour cell line growth inhibition, 48 h
[1] = tested on: IGROV-1
[2] = tested on: UACC-62
[3] = tested on: HOP-62
[4] = tested on: DU-145
[5] = tested on: MDA-MB-435
[6] = tested on: Hs-578T
[7] = tested on: RPMI-8226
[8] = tested on: UO-31
[9] = tested on: U-251
[10] = tested on: RXF 393
[11] = tested on: T47D
[12] = tested on: A498
[13] = tested on: NCI/ADR-RES
[14] = tested on: HCC 2998
[15] = tested on: BT-549
[16] = tested on: SF-539
[17] = tested on: CAKI-1
[18] = tested on: A549
[19] = tested on: 786-0
[20] = tested on: OVCAR-5

Measured: GI50

CC(C)C(/C=C/c1ccc(Cl)cc1)=N\NC(=S)NN
inactive: [1] 20.2 µM | [2] 4.51 µM | [3] 31.6 µM | [4] 27.5 µM | [5] 10.7 µM | [6] 14.6 µM | [7] 11.7 µM | [8] 17.9 µM | [9] 6.61 µM | [10] 15 µM | [11] 6.59 µM | [12] 23.8 µM | [13] 17.7 µM | [14] 44.2 µM | [15] 23.1 µM | [16] 25.1 µM | [17] 22.4 µM | [18] 31.6 µM | [19] 20.5 µM | [20] 30.9 µM

O=c1ccc2nc3ccc(O)cc3oc-2c1
inactive: [1] 39.5 µM | [2] 2.7 µM | [3] 17 µM | [4] 21 µM | [5] 1.83 µM | [6] 6.92 µM | [7] 3.3 µM | [8] 5.75 µM | [9] 26.8 µM | [10] > 100 µM | [11] > 100 µM | [12] 35.2 µM | [13] 19.5 µM | [14] 25.6 µM | [15] 7.24 µM | [16] 4.7 µM | [17] > 67.9 µM | [18] 4.27 µM | [19] 13.4 µM | [20] > 100 µM

O=C(/C=C/c1ccc2c(c1)OCO2)CC(=O)C(=O)c1c[nH]c2ccccc12
inactive: [1] 47.8 µM | [2] 44.2 µM | [3] 41.6 µM | [4] 42.9 µM | [5] 24.3 µM | [6] 29 µM | [7] 35.4 µM | [8] 24.2 µM | [9] 30.8 µM | [10] 31.6 µM | [11] 29.4 µM | [12] 65.5 µM | [13] > 100 µM | [14] 16.3 µM | [15] 25.9 µM | [16] 32.4 µM | [17] 39.5 µM | [18] 35.3 µM | [19] 41.9 µM | [20] 77.4 µM

CCN1CC2(C)CCC(OC)C34C5CC6CCC(O)(C5C(=O)O6)C(C(O)C23)C14 (stereo not given)
inactive: [1] > 100 µM | [2] > 100 µM | [3] > 100 µM | [4] > 100 µM | [5] > 100 µM | [6] > 100 µM | [7] > 100 µM | [8] > 100 µM | [9] > 100 µM | [10] > 100 µM | [11] > 100 µM | [12] > 100 µM | [13] > 100 µM | [14] > 10 µM | [15] > 100 µM | [16] > 100 µM | [17] > 100 µM | [18] > 100 µM | [19] > 100 µM | [20] > 100 µM

CC(C)NC(=O)OCc1c(COC(=O)NC(C)C)c(-c2ccc[n+](COC(=O)C(C)(C)C)c2)n2c1CCC2
inactive: [1] > 80.7 µM | [2] 35.5 µM | [3] > 71.1 µM | [4] > 91.4 µM | [5] > 100 µM | [6] > 67.5 µM | [7] > 100 µM | [8] 64.7 µM | [9] > 76.9 µM | [10] 30.5 µM | [11] > 100 µM | [12] 32.7 µM | [13] > 73.1 µM | [14] > 100 µM | [15] > 100 µM | [16] 43.4 µM | [17] 27.6 µM | [18] 99.1 µM | [19] 40.7 µM | [20] > 100 µM

COC(=O)[C@@H]1C=CCN1S(=O)(=O)c1ccc(C)cc1
inactive: [1] > 100 µM | [2] 38 µM | [3] > 100 µM | [4] > 100 µM | [5] 13.2 µM | [6] > 100 µM | [7] > 100 µM | [8] > 100 µM | [9] 31.1 µM | [10] 50.5 µM | [11] > 100 µM | [12] > 100 µM | [13] > 100 µM | [14] 70.6 µM | [15] > 100 µM | [16] 60.1 µM | [17] 20.2 µM | [18] > 100 µM | [19] 32.9 µM | [20] > 100 µM

CC1CCC(=O)C(C(=O)CC2CC(=O)N(C)C(=O)C2)C1 (stereo not given)
inactive: [1] > 100 µM | [2] > 100 µM | [3] > 100 µM | [4] > 100 µM | [5] > 100 µM | [6] > 100 µM | [7] > 100 µM | [8] > 100 µM | [9] > 100 µM | [10] > 100 µM | [11] > 100 µM | [12] > 100 µM | [13] > 100 µM | [14] > 100 µM | [15] > 100 µM | [16] > 100 µM | [17] > 100 µM | [18] > 100 µM | [19] > 100 µM | [20] > 100 µM

Cc1ccc(C(=O)C(Cl)C(Cl)c2ccc(C)cc2)cc1 (stereo not given)
inactive: [1] 2.58 µM | [2] 3.67 µM | [3] 18.1 µM | [4] 5.18 µM | [5] 2.97 µM | [6] 21.8 µM | [7] 1.56 µM | [8] 2.06 µM | [9] 3.46 µM | [10] 7.46 µM | [11] 2.08 µM | [12] 16.3 µM | [13] 2.55 µM | [14] 2.03 µM | [15] 3.78 µM | [16] 2.49 µM | [17] 2.59 µM | [18] 21.9 µM | [19] 2.03 µM | [20] 7.87 µM
